{
  "source": "patent US20150283120A1",
  "about": "“ANTIBIOTIC METHODS AND COMPOSITIONS FOR BACTERIA INFECTIONS” (THE UNIVERSITY OF CHICAGO, priority 2012, published 2015)",
  "key": {"[1]": {"system": "VISA 2283", "experiment": "microbe, parasite or virus in culture", "type": "cell-based, Staphylococcus aureus", "conditions": "for Synergy category: VISA 2283, with vancomycin", "text": "(§1) As shown in the analysis of the checkerboard assays (Table 6), gossypol fully potentiated vancomycin (FIC i<0.5) in hVISA, VISA, VRS2 and VRS1. […] Clomiphene partially potentiated vancomycin in hVISA, VISA, and VRS1 and it fully potentiated in strain VRS2."}, "[2]": {"system": "vraR transcription", "experiment": "Tertiary screen: qRT-PCR of vraR in strain 923", "type": "cell-based, Staphylococcus aureus"}, "[3]": {"system": "vraSR operon (vra promoter, Pvra::lux)", "experiment": "Primary screen: Pvra-lux luminescence (vraSR induction)", "type": "cell-based, Staphylococcus aureus", "conditions": "compound 10 μM, oxacillin 2 μg/mL; luminescence at 2 hours; library screened twice"}, "[4]": {"system": "MRSA strain 8004-01", "experiment": "Checkerboard oxacillin + compound, strain 8004-01", "set-up": "MIC OX / MIC OX (+) / MIC cmpd alone: unit not given beside the values", "conditions": "strain 8004-1 (ST239); for FICi: oxacillin + compound"}, "[5]": {"system": "MRSA strain USA300-isolate 923", "experiment": "Checkerboard MIC testing of compounds with oxacillin", "type": "cell-based, Staphylococcus aureus", "conditions": "for oxacillin MIC: strain 923, 24 h"}, "[6]": {"system": "MRSA strain USA300 Pvra-lux", "type": "cell-based, Staphylococcus aureus", "conditions": "compound 10 μM + oxacillin 2 μg/mL", "summary_of_the_method": "(§2)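 Secondary screen: compound at 10 μM plus oxacillin 2 μg/mL, four biological replicates, luminescence read every 15 minutes. RG and RL are OD600 or max LU with compound plus oxacillin over pooled same-plate oxacillin controls; RL <0.8 repressor, >1.2 stimulator, 0.80-1.2 neutral.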"}, "[7]": {"system": "vraSR transcription (Pvra::lux)", "type": "cell-based, Staphylococcus aureus", "conditions": "compound 10 μM + oxacillin 2 μg/mL", "summary_of_the_method": "as §2"}, "[8]": {"system": "test strain (923 pPvra-lux)", "experiment": "Primary screen: growth (OD) of test strain with compound, with and without oxacillin", "type": "cell-based, Staphylococcus aureus", "conditions": "compound 10 μM, with and without oxacillin 2 μg/mL; OD at 24 h; library screened twice"}, "[9]": {"system": "diverse MRSA strains", "experiment": "MIC of oxacillin with a single concentration of compound in multiple MRSA strains", "type": "cell-based, Staphylococcus aureus", "protocol": "Testing potentiation of oxacillin by compounds in multiple MRSA strains: In order to be considered a synergistic agent in therapy of MRSA infection, it must be effective as a potentiator in diverse MRSA strains. To determine whether the oxacillin potentiators were effective against MRSA strains besides USA300, a single effective concentration of three compounds that were not known as antibiotics—gossypol, pyrvinium and clomiphene—were tested against multiple MRSA genetic backgrounds. Each compound was tested at a single optimal concentration, determined in the checkerboard assays, in combination with various concentrations of oxacillin. The strains included in this panel were from diverse genetic backgrounds as determined by multilocus sequence type (MLST) and contained a variety of SCCmec types. […] The MIC80 was […] for clomiphene, gossypol, and pyrvinium, respectively."}, "[10]": {"system": "VRS2", "experiment": "microbe, parasite or virus in culture", "type": "cell-based, Staphylococcus aureus", "text": "as §1"}, "[11]": {"system": "hVISA 2275", "experiment": "microbe, parasite or virus in culture", "type": "cell-based, Staphylococcus aureus", "conditions": "for Synergy category: with vancomycin", "text": "as §1"}, "[12]": {"system": "VRS1", "experiment": "microbe, parasite or virus in culture", "type": "cell-based, Staphylococcus aureus", "text": "as §1"}, "[13]": {"conditions": "Staphylococcus aureus, read-out: MIC compound"}},
  "note": "“Also recorded” adds a separate entry of the source.",
  "data": [
    {"smiles": "Cc1cc2c(C(C)C)c(O)c(O)c(C=O)c2c(O)c1-c1c(C)cc2c(C(C)C)c(O)c(O)c(C=O)c2c1O", "note": "[Gossypol, 2,2′-bis-(Formyl-1,6,7-trihydroxy-5-isopropyl-3-methylnaphthalene)]", "values": [
      {"measurement": "MIC", "setting": "[1]; Staphylococcus aureus, VISA, read-out: MIC compound", "result": 10.4, "unit": "µg/mL"},
      {"measurement": "Synergy category", "setting": "[1]", "result": "fully potentiated (fully potentiated vancomycin (FIC i<0.5))"},
      {"measurement": "Synergy category", "setting": "[1]; listed as Gos", "result": "partial (partially potentiated vancomycin (FIC i>0.5 and <1.0))"},
      {"measurement": "classification of lux screen result against qRT-PCR (true/false repressor or stimulator)", "setting": "[2]; in the presence of oxacillin", "result": "true vraSR expression repressors"},
      {"measurement": "Effect on vraSR Transcription: With oxacillin", "setting": "[2]; qRT-PCR of vraR, compound 10 μM + oxacillin 2 μg/mL", "result": "vraR inhibitors; also recorded: repress"},
      {"measurement": "primary screen category by effect on vraSR (Pvra-lux luminescence)", "setting": "[3]", "result": "repressed Pvra::lux in both primary screens"},
      {"measurement": "FIC Compound", "setting": "[4]", "result": ".5"},
      {"measurement": "FIC Ox", "setting": "[4]", "result": ".06"},
      {"measurement": "MIC cmpd alone", "setting": "[4]", "result": 40},
      {"measurement": "MIC cmpd +", "setting": "[4]; compound in combination with oxacillin", "result": 20, "unit": "µg/mL"},
      {"measurement": "FICi", "setting": "[4]", "result": 0.56},
      {"measurement": "FICi", "setting": "[4]; listed as Gos", "result": ".56"},
      {"measurement": "MIC OX (+)", "setting": "[4]; oxacillin in combination with compound", "result": 32},
      {"measurement": "oxacillin MIC", "setting": "[5]; compound 0.25 μM", "result": 32, "unit": "µg/mL"},
      {"measurement": "oxacillin MIC", "setting": "[5]; compound 0.5 μM", "result": 32, "unit": "µg/mL"},
      {"measurement": "oxacillin MIC", "setting": "[5]; compound 1 μM", "result": 16, "unit": "µg/mL"},
      {"measurement": "oxacillin MIC", "setting": "[5]; compound 2 μM", "result": 4, "unit": "µg/mL"},
      {"measurement": "oxacillin MIC", "setting": "[5]; compound 4 μM", "result": 2, "unit": "µg/mL"},
      {"measurement": "oxacillin MIC", "setting": "[5]; compound 8 μM", "result": 2, "unit": "µg/mL"},
      {"measurement": "oxacillin MIC", "setting": "[5]; compound 16 μM", "result": 2, "unit": "µg/mL"},
      {"measurement": "change of the MIC of oxacillin with compound concentration", "setting": "[5]; strain 923, checkerboard", "result": "dose dependent decrease"},
      {"measurement": "bactericidal effect of oxacillin (MBC, >99.9% killing)", "setting": "[5]; strain 923, wells with FICi≦0.5 spotted on TSA", "result": "increased the bactericidal effect of oxacillin"},
      {"measurement": "OD600 category", "setting": "[6]", "result": "inhibited (of <0.8 were classified as oxacillin synergists or potentiators)"},
      {"measurement": "RG avg (relative growth)", "setting": "[6]; ratio of OD600 to oxacillin alone, four runs", "result": 0.16},
      {"measurement": "Effect on vraSR transcription", "setting": "[7]", "result": "repress (“vraSR repressors” (mean RL of <0.8))"},
      {"measurement": "RL avg (relative luminescence)", "setting": "[7]; ratio of LU to oxacillin alone, four runs", "result": 0.11},
      {"measurement": "primary screen category by effect on growth of MRSA strain 923", "setting": "[8]", "result": "strong growth inhibitors on their own"},
      {"measurement": "MIC 80 of Ox in presence of compound", "setting": "[9]; panel of 11 MRSA isolates, clom 3.8 μM, gos 15 μM, pyr 0.5 μM", "result": 8, "unit": "µg/mL"},
      {"measurement": "MIC50 of oxacillin in the presence of compound", "setting": "[9]; panel of strains", "result": 0.5, "unit": "µg/mL"},
      {"measurement": "MIC80 of oxacillin in the presence of compound", "setting": "[9]; panel of strains", "result": 0.008, "unit": "µg/mL"},
      {"measurement": "fold decrease in the oxacillin MIC50", "setting": "[9]; panel of strains, with compound against oxacillin alone", "result": 32, "unit": "fold"},
      {"measurement": "MIC", "setting": "[10]; [13]", "result": 5.2, "unit": "µg/mL"},
      {"measurement": "FICi V + compound", "setting": "[10]; VRS2", "result": 0.31},
      {"measurement": "Van FIC", "setting": "[10]; VRS2", "result": 0.06},
      {"measurement": "compound FIC", "setting": "[10]; VRS2", "result": 0.25},
      {"measurement": "fold decrease Van MIC", "setting": "[10]; VRS2", "result": 16, "unit": "fold"},
      {"measurement": "MIC (in combination) compound+", "setting": "[10]; VRS2, compound MIC with the indicated Van concentration", "result": 1.3},
      {"measurement": "Synergy category", "setting": "[10]; VRS2, with vancomycin, listed as Gos", "result": "synergistic (fully potentiated vancomycin (FIC i<0.5))"},
      {"measurement": "MIC", "setting": "[11]; [13]", "result": 10.4, "unit": "µg/mL"},
      {"measurement": "FICi V + compound", "setting": "[11]; hVISA 2275", "result": 0.38},
      {"measurement": "Van FIC", "setting": "[11]; hVISA 2275", "result": 0.25},
      {"measurement": "compound FIC", "setting": "[11]; hVISA 2275", "result": 0.125},
      {"measurement": "fold decrease Van MIC", "setting": "[11]; hVISA 2275", "result": 4, "unit": "fold"},
      {"measurement": "MIC (in combination) compound+", "setting": "[11]; hVISA 2275, compound MIC with the indicated Van concentration", "result": 1.3},
      {"measurement": "Synergy category", "setting": "[11]; hVISA 2275", "result": "fully potentiated (fully potentiated vancomycin (FIC i<0.5))"},
      {"measurement": "Synergy category", "setting": "[11]; hVISA 2275, listed as Gos", "result": "synergistic (fully potentiated vancomycin (FIC i<0.5))"},
      {"measurement": "MIC", "setting": "[12]; [13]", "result": 20.8, "unit": "µg/mL"},
      {"measurement": "Synergy category", "setting": "[12]; VRS1, with vancomycin, listed as Gos", "result": "synergistic (fully potentiated vancomycin (FIC i<0.5))"}
    ]}
  ]
}
